Laboratory results from patent publication US12226410B2, “Methods for enhancing cellular clearance of pathological molecules via activation of the cellular protein ykt6” (NORTHWESTERN UNIVERSITY, priority 2019, dated 2025).

Columns and labels:
a-syn = assay: Sequential extraction/western blot of a-syn in FTI-treated A53T iPSn; assay type: cell-based, human; settings: 5 nM, 7d
Description: FIGS. 6A, 6B, 6C, 6D, 6E, 6F, and 6G. FTIs enhance lysosomal GCase activity and reduce pathological a-syn by blocking ykt6 farnesylation. 6A) GCase activity in FTI-treated A53T iPSn at d80 (LNK-754 5 nM, 5d). 6B) GCase activity in FTI-treated A53T iPSn expressing empty vector (vect) or ykt6-CS (n=4). 6C) Lysosomal GCase activity was assessed in FTI-treated SHSY5Y cells transfected with scrambled or ykt6 shRNA (KD) (n=3). 6D) Quantification of Triton X-100 soluble (T-sol) a-syn by western blot from FTI-treated A53T iPSn (5 nM, 7d). *, non-specific band. (n=3). 6E) Quantification of insoluble a-syn from A53T iPSn as in D (n=3). 6F) Insoluble a-syn in FTI-treated H4 cells (5 nM, 5 days) transfected with either scrambled or ykt6 shRNA (n=6). 6G) Neuron viability was assessed in FTI-treated A53T iPSn (5 nM, 14d from d86-d100) by quantification of neurofilament protein. Right, neuron viability in FTI-treated A53T iPSn expressing empty vector or ykt6-CS (n=4). Values are the mean+/−SEM, *p<0.05, **p<0.01, ***p<0.001.
Sequential biochemical extraction for the analysis of pathological a-synuclein. […] Protein concentration was measured by BCA assay (Pierce). […]
Western blot analysis. […] The blots were washed as before and scanned/analyzed using an Odyssey infrared imaging system with Image Studio Software. […]

ykt6 SNARE complexes = assay: SEC/western blot of ykt6 SNARE complexes in FTI-treated cultures; assay type: cell-based, human; settings: SH-SY5Y cells, confirmed in A53T iPSn
Description: FIGS. 5A, 5B, 5C, 5D, 5E, 5F, and 5G. Reducing farnesyl-ykt6 enhances SNARE assembly and improves the lysosomal targeting of GCase. 5A) Ykt6 membrane shift analysis of SH-SY5Y cells expressing GFP-ykt6 wt or CS (n=3). 5B) Co-IP of GFP-ykt6 and bet1 in A53T iPSn (n=3). 5C) Ykt6 membrane shift analysis in FTI-treated SH-SY5Y wt a-syn cells or A53T iPSn (5 nM farnesyltransferase inhibitors (FTI) LNK-754 (FTI-1) or LNK-3248 (FTI-2) for 5 days) (n=4). Sec22b was measured to assess specificity. 5D) SEC/western blot of FTI-1 treated SH-SY5Y cells. Quantification is shown below. 5E) Co-IP of GFP-ykt6 wt or mutant ykt6-SS, (cannot be palmitoylated or farnesylated) in FTI-treated SHSY5Y cells (5 nM LNK-754, 5d) (n=2). 5F) Immunofluorescence of GCase and LAMP2A in FTI-treated H4 a-syn cells transfected with scrambled (scrb) or ykt6 shRNA (n=3). Scale bar=10 um. 5G) GCase maturation analysis in FTI-treated A53T iPSn by endo H (n=3). Values are the mean+/−SEM, *p<0.05.
Size exclusion chromatography analysis. Cultures or PD brain (cingulate cortex, previously described (Mazzulli et al., 2011)) were homogenized as described above in 1% Triton buffer, centrifuged at 100,000×g for 30 min at 4° C. […]
Treatment of cultures with farnesyltransferase inhibitors. […] Cultures were harvested and analyzed as described in the above sections.

C#Cc1cccc(-c2cc(=O)n(C)c3ccc([C@](O)(c4ccc(Cl)cc4)c4cncn4C)cc23)c1 [LNK-754]
soluble and insoluble levels of a-syn (C20, syn303) (a-syn): reduced | levels of ykt6 SNARE complexes by SEC (ykt6 SNARE complexes): elevated the levels of ykt6 SNARE complexes
